Experimental data published in patent US11338009B2 (The Children's Hospital of Philadelphia, priority 2017, dated 2022).
Like-named read-outs stand apart in the source and are kept apart here.

Tests used:
hCC L68Q variant = biological target: T1, hCC L68Q variant (Homo sapiens, UniProt P01034, L94Q); assay: Incubation of supernatants and cellular extracts of hCC-expressing HEK-293T cells with reducing agents, non-reducing SDS-PAGE/Western blot for cystatin C; format: biochemical; conditions: for high molecular weight complexes of L68Q Cyst-C: supernatants and cell extracts, 1 h at 37° C. (FIG. 5); for concentration at which equivalent loss of high molecular signal was observed: supernatants or cell extracts treated in vitro (FIG. 6); for ability to disrupt high molecular weight complexes of L68Q Cyst-C: supernatants or cell extracts treated in vitro, 1 h at 37 C (FIG. 6); for oligomerization of hCC WT and L68Q variant in presence of reducing agent: DTT 50 mM or β-mercaptoethanol 5% in sample buffer, lysates and supernatants; for HMW of secreted hCC L68Q (quantitation) / inhibition at 3000 µM: 3 mM; for HMW of secreted hCC L68Q (quantitation) / oligomerization/dimerization levels of secreted hCC L68Q variant in vitro: supernatants, 37° C. for 60 min
T1 construct: Dashed line represents the N-terminal signal peptide subject to proteolysis; expressed in transfected cells
T1 sequence (P01034 27-146 L94Q): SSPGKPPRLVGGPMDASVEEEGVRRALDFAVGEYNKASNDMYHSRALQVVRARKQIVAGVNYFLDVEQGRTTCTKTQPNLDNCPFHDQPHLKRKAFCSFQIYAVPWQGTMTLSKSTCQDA
Description: A plasmid containing a cDNA of CST3 was obtained from Dharmacon (Lafayette, Colo.). The full length coding sequence was amplified with a c-terminal Myc tag by PCR using the forward primer […] All sequences were confirmed by Sanger sequencing. […] After transfection cells were incubated with fresh medium containing puromycin (1 μg/ml) for 3 weeks. After selection, stable clones of each transfectant were generated by limiting dilution.
After clearing the cell lysates by centrifugation (10 minutes, 21,000×g, 4° C.), the supernatants were collected and used for Western blotting. Sample buffer containing SDS, glycerol, Tris-HCl pH 6.8, and bromophenol blue was added to each sample to the following final concentrations: 2% SDS, 10% glycerol, 50 mM Tris-HCl, 0.02% bromophenol blue. In samples that were reduced, either DTT (50 mM final concentration) or β-mercaptoethanol (5% final concentration) were added. […] Proteins were transferred to PVDF membranes (Millipore, Billerica, Mass.) and blotted with anti-hCystatin C, and developed by enhanced chemiluminescence (ECL; Thermo Fisher Scientific). ECL films were scanned, and densities of bands were determined using the gel analysis features of Fiji.^59
(§1) The means and standard deviations of data were calculated. One-sided T-test tests were used to determine the level of significance with respect to the untreated samples, with p<0.05 being considered statistically significant.

[1] = biological target: T2, amyloid-cystatin protein complex aggregates in the skin (Homo sapiens, UniProt P01034, L94Q); assay: Cystatin C immunostaining of skin biopsies from HCCAA patients (hCC L68Q carriers) on NAC therapy; format: in vivo
T2 construct: from tissue; host or cells: human skin biopsies from HCCAA patients
T2 sequence (P01034 27-146 L94Q): T1 sequence (P01034 27-146 L94Q)
Source text: Three 4 mm skin biopsies from the back were taken from each of the three studied individuals. The skin biopsies were formalin-fixed and paraffin-embedded. They were cut into 3 μm sections for immunohistochemistry and immunostained with rabbit polyclonal cystatin C antibody (Sigma, HPA013143) using the EnVision Detection System as previously described.^22 hCC immunoreactivity in the carriers skin biopsies was quantified by semi-automated image analysis using the ImageJ software as previously described.^22 Bright-field images of each section from the carriers were captured using a ×20/0.3 NA objective. RGB color images of the sections were imported to ImageJ. On each image, a rectangular 2000×2000 pixels region of interest (ROI) was defined. Subsequent processing yielding the % area coverage of hCC immunoreactivity within each ROI was performed as previously described^22. […] The second biopsy was taken immediately prior to the family-wide initiation of NAC treatment (600 mg of NAC 3× per day for 6 months). The third biopsy was taken following 6 months of 600 mg 3× per day of NAC therapy.
The proband received 400 mg NAC 4× per day for 9 months followed by 600 mg 3× per day for 6 months. The parent received only the 600 mg 3× per day for 6 months course. The proband never missed a dose; the parent did miss the middle dose 2-3 times per week.

Cyst-C L68Q = biological target: T3, Cyst-C L68Q (Homo sapiens, UniProt P01034, L94Q); assay: Incubation of plasma or brain extracts of Cyst-C L68Q transgenic mice with NAC, non-reducing Western blot; format: biochemical; conditions: 1 h at 37° C.
T3 construct: from tissue; host or cells: plasma and brain extracts of Cyst-C L68Q transgenic mice (from Levy, New York University)
T3 sequence (P01034 27-146 L94Q): T1 sequence (P01034 27-146 L94Q)
Description: FIG. 7. High molecular weight complexes of Cyst-C L68Q can be detected in transgenic mice. Short incubation of NAC impairs oligomerization of Cyst-C L68Q on blood and brain extracts. Plasma or brain extracts were incubated in presence of NAC during 1 h at 37° C. with indicated concentrations. Samples were mixed with 2% SDS without reducing agents prior to electrophoresis, and proteins levels were detected by biotinylated anti-cystatin C antibody followed by streptavidin-HRP.
Additional results have been generated from transgenic mice that were obtained from our collaborator Eufrat Levy at New York University. These mice have been transformed with a human genomic DNA which contains the coding sequence of Cyst-C, […] non-coding portions of the gene which may impact expression levels. […] Western blots from the mouse tissue extracts are not as clean as blots from the cell system, as the antibody we use to detect was raised in a mouse. […] Although there are several non-specific high molecular weight bands observed in the non-transgenic samples, a clear high molecular weight “smear” is seen in the transgenic animals, consistent with what we observe in supernatant from the cell culture system.

[2] = human, in vivo
secreted hCC L68Q = biological target: T4, secreted hCC L68Q (Homo sapiens, UniProt P01034, L94Q); assay: Treatment of live HEK-293T cells expressing hCC WT or L68Q with compounds, Western blot of supernatants or lysates; format: cell-based; conditions: for presence of HMW and LMW of secreted hCC L68Q / reduction of HMW and LMW of secreted hCC L68Q: 10 mM; for presence of HMW and LMW of secreted hCC L68Q: 24 h and 48 h time points; for reduction of HMW and LMW of secreted hCC L68Q: 72 h; for effect on oligomerization of secreted hCC L68Q: lower doses (below 10 mM)
T4 construct: Dashed line represents the N-terminal signal peptide subject to proteolysis; expressed in transfected cells
T4 sequence (P01034 27-146 L94Q): T1 sequence (P01034 27-146 L94Q)
Description: HEK-293T cells expressing hCC WT or the L68Q variant were washed twice with ice-cold phosphate-buffered saline (PBS) and lysed on ice using a freshly prepared ice-cold cell lysis buffer containing 50 mM Tris-HCl, pH 7.4, 100 mM NaCl, 50 mM β-glycerophosphate, 10% glycerol (w/v), 1% NP-40 (w/v), 1 mM EDTA, 2 mM NaVO4, and a complete, EDTA-free, protein inhibitor cocktail (Roche Applied Science, Mannheim Germany) at 20 μl per mL of lysis buffer. After clearing the cell lysates by centrifugation (10 minutes, 21,000×g, 4° C.), the supernatants were collected and used for Western blotting. Sample buffer containing SDS, glycerol, Tris-HCl pH 6.8, and bromophenol blue was added to each sample to the following final concentrations: 2% SDS, 10% glycerol, 50 mM Tris-HCl, 0.02% bromophenol blue. In samples that were reduced, either DTT (50 mM final concentration) or β-mercaptoethanol (5% final concentration) were added. Equal volumes of lysate or supernatant samples were loaded on NuPAGE 4-12% Bis-Tris gels (Thermo Fisher Scientific, Waltham Mass.) without heating/boiling. Proteins were transferred to PVDF membranes (Millipore, Billerica, Mass.) and blotted with anti-hCystatin C, and developed by enhanced chemiluminescence (ECL; Thermo Fisher Scientific). ECL films were scanned, and densities of bands were determined using the gel analysis features of Fiji.^59
(§2) HEK-239T cells were plated on 6-well plates and cultured for 2 days, at which point reduced glutathione (GSH) (Sigma, St. Louis, Mo.) or N-acetylcystein (NAC) (Sigma) were added to the indicated concentrations. Cells were incubated with compounds for 72 hours, and 100 μl samples of supernatants were removed at 24, 48, and 72 hours. Supernatants were cleared by centrifugation (10 minutes, 21,000×g, 4° C.). Sample buffer containing SDS, glycerol, Tris-HCl pH 6.8, and bromophenol blue was added to each sample to the following final concentrations: 2% SDS, 10% glycerol, 50 mM Tris-HCl, 0.02% bromophenol blue. When indicated, cells were washed with PBS and lysed and cystatin C levels were determined by means of Western blot analysis.
as §1

HEK-293T cells = assay: Viability and proliferation of hCC-expressing HEK-293T cells in the presence of reducing agents; format: cell-based, human
Description: as §2

## CC(=O)N[C@@H](CO)C(=O)O [NAS, n-acetyl-serine]
hCC L68Q variant
  high molecular weight complexes of L68Q Cyst-C: does not affect

## COC(=O)[C@H](CS)NC(C)=O [NAC-methyl ester, N-acetylcysteine methyl ester]
hCC L68Q variant
  concentration at which equivalent loss of high molecular signal was observed: 1 mM
  ability to disrupt high molecular weight complexes of L68Q Cyst-C: retain the ability to disrupt

## OCCS [b-mercaptoethanol]
hCC L68Q variant
  oligomerization of hCC WT and L68Q variant in presence of reducing agent: completely abolished

## CC(=O)N[C@@H](CS)C(N)=O
hCC L68Q variant
  concentration at which equivalent loss of high molecular signal was observed: 1 mM
  ability to disrupt high molecular weight complexes of L68Q Cyst-C: retain the ability to disrupt

## CC(=O)N[C@@H](CS)C(=O)O [NAC, N-acetyl cysteine]
[1]; parent), 600 mg 3× per day for 6 months, middle dose missed 2-3 times per week
  reduction in staining of skin biopsy: 50%
[1]; proband, on NAC for about 9 months, stopped a few months prior to second biopsy
  progression of amyloid-cystatin stain intensity between skin biopsy #1 and #2: had not progressed in any significant way
[1]; sibling, lower doses of NAC
  reduction in staining of skin biopsy: less obvious
Cyst-C L68Q
  Cyst-C monomer: causes the appearance of monomer
  high molecular weight smear of transgenic human Cyst-C: reduces this smear
[2]
  tolerability of oral therapy: well tolerated and without adverse events
Secreted hCC L68Q
  presence of HMW and LMW of secreted hCC L68Q: completely abolished
  reduction of HMW and LMW of secreted hCC L68Q: appreciable but incomplete reduction
Secreted hCC L68Q; extracellular treatment of cells (data not shown)
  dimerization status of the intracellular levels of L68Q hCC: does not appear to impact
Secreted hCC L68Q; 24 h and 48 h
  effect on oligomerization of secreted hCC L68Q: only incompletely effective
Secreted hCC L68Q; after 72 h
  effect on oligomerization of secreted hCC L68Q: no significant effect
hCC L68Q variant
  HMW of secreted hCC L68Q (quantitation): almost complete ablation
  high molecular weight complexes of L68Q Cyst-C: significant reduction
  concentration at which equivalent loss of high molecular signal was observed: 10 mM
hCC L68Q variant; 3 or 10 mM
  oligomerization/dimerization levels of secreted hCC L68Q variant in vitro: severely reduces

## N[C@@H](CCC(=O)N[C@@H](CS)C(=O)NCC(=O)O)C(=O)O [GSH, glutathione]
HEK-293T cells; all concentrations (up to 10 mM), 72 hours
  cell viability for the duration of the experiment: viable
HEK-293T cells; highest 10 mM concentration (data not shown)
  proliferation of the cells: slightly impacted
Secreted hCC L68Q
  presence of HMW and LMW of secreted hCC L68Q: completely abolished
  reduction of HMW and LMW of secreted hCC L68Q: appreciable but incomplete reduction
Secreted hCC L68Q; 24 h and 48 h
  effect on oligomerization of secreted hCC L68Q: only incompletely effective
Secreted hCC L68Q; after 72 h
  effect on oligomerization of secreted hCC L68Q: no significant effect
hCC L68Q variant; cellular extract, 37° C., read-out: inhibition of the HMW on the intracellular fraction of the L68Q hCC variant (densitometry)
  inhibition at 3000 µM: ~50%
hCC L68Q variant; supernatant, 37° C., read-out: inhibition of the HMW in the secreted fraction of the L68Q hCC variant (densitometry)
  inhibition at 3000 µM: ~90%
hCC L68Q variant
  HMW of secreted hCC L68Q (quantitation): almost complete ablation
  high molecular weight complexes of L68Q Cyst-C: significant reduction
hCC L68Q variant; 3 or 10 mM, 37° C.
  amount of dimer and/or HMW oligomer in secreted and intracellular fraction of hCC WT or L68Q variant: severely reduced
hCC L68Q variant; 3 or 10 mM
  oligomerization/dimerization levels of secreted hCC L68Q variant in vitro: severely reduces

## O[C@@H](CS)[C@@H](O)CS [DTT]
hCC L68Q variant
  oligomerization of hCC WT and L68Q variant in presence of reducing agent: completely abolished

## GSSH
hCC L68Q variant
  high molecular weight complexes of L68Q Cyst-C: does not affect
